# Laboratory results: US20190060249A1 (priority 2017, published 2019)
# Experiments:
# [1] = tested on: SSC90 (HPV-positive) head and neck squamous cell carcinoma cell line; assay: Xenograft study, SSC90; format: in vivo, SCID mice; details: Alda-341 from one week ahead of irradiation, during and post; 30 Gy over 5 fractions
# Procedure: Xenograft study: Six-week old SCID mice were purchased from the Jackson laboratory and five mice per group were used. SCC90 and SAS cells (2×10^6 cells/injection) were implanted into both flanks of each mouse. Alda-341 treated one week ahead of irradiation and continued during and post radiation. Total 30 Gy over 5 fractions in a week was delivered to the tumor with the rest of the body shielded. Tumor size was measured every 1-2 days. Tumor volume was calculated by the formula (π×length×width×height)/6.
# [2] = molecular target: T1, ALDH7A1 (Homo sapiens, UniProt P49419); assay: ALDH enzymatic assay, recombinant ALDH7A1; format: biochemical; details: 5 μg/ml recombinant enzyme, 10 mM acetaldehyde, 20 μM Alda-341
# T1 sequence (P49419 27-539): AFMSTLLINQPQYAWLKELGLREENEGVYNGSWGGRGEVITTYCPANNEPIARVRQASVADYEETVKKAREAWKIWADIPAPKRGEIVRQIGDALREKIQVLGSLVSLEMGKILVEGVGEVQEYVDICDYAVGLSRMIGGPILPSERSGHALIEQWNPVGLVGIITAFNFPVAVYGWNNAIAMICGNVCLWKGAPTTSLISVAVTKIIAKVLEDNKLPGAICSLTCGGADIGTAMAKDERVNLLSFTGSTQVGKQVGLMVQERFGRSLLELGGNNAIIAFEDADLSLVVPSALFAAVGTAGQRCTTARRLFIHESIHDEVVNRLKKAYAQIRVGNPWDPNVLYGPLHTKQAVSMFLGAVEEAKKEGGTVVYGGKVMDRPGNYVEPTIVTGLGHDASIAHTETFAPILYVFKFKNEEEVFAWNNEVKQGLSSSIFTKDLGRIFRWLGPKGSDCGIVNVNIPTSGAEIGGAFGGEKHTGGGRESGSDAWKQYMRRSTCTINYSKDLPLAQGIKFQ
# Procedure: (§1) ALDH enzymatic assay: ALDH1A1, ALDH1A2, 2, 3A1, 3A2, 4A1, 5A1, 7A1 were measured as previously described using 5 μg/ml of recombinant protein (Chen, C. H., Cruz, L. A., and Mochly-Rosen, D. (2015) Pharmacological recruitment of aldehyde dehydrogenase 3A1 (ALDH3A1) to assist ALDH2 in acetaldehyde and ethanol metabolism in vivo. Proceedings of the National Academy of Sciences of the United States of America 112, 3074-3079). […] Assays were conducted in 50 mM NaPPi buffer (pH 7.4) in the presence of 2.5 mM NAD^+ and 10 mM substrate and measured in triplicate at 25° C. Dose response curve fits and EC50's were calculated using GraphPad Prism 7 software.
# [3] = molecular target: T2, ALDH3A1 (Homo sapiens, UniProt P30838); assay: ALDH enzymatic assay (spectrophotometric), recombinant ALDH3A1; format: biochemical
# T2 sequence (P30838 1-453): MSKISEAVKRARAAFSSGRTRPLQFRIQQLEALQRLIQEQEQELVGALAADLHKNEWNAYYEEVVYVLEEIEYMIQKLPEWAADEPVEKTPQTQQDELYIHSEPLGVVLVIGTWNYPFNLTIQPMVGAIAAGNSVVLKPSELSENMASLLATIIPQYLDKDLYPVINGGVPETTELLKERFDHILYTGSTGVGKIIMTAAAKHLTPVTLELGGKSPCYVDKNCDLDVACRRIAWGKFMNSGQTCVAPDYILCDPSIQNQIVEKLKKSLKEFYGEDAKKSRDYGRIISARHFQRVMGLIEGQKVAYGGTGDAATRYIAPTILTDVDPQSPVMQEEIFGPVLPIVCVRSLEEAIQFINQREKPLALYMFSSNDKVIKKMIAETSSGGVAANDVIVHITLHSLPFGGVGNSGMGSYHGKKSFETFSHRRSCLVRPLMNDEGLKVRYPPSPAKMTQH
# Description: To determine if ALDH3A1 activation is sufficient to protect salivary glands from radiation-induced dysfunction, a library of 135 traditional Chinese medicine extracts donated from Sun Ten Pharmaceutical Co., Taiwan, was screened using a spectroscopic enzyme activity assay and purified recombinant ALDH3A1. […] We then conducted high performance liquid chromatography (HPLC) fractionation of the extracts and nuclear magnetic resonance (NMR) characterization of the fractions. Based on the NMR fingerprint, we identified known constituents of similar fingerprints and purchased the commercially available compounds to test using the enzyme activity assay.
# as §1
# Activity measured in presence of compound concentrations from 6 nM to 400 μM.
compound,measurement,setting,value
"C=C(C)[C@H]1CC=C(C)CC1 [Alda-341, D-limonene]","tumor growth and protection of tumors from radiation, SSC90 xenograft",[1],did not increase tumor growth or protect tumors from radiation
same,catalytic activity of ALDH7A1,[2],did not increase
same,substrate specificity of increase in ALDH3A1 catalytic activity,"[3]; 10 mM acetaldehyde, propionaldehyde, benzaldehyde, cinnamaldehyde, decanal, heptaldehyde or 200 μM 4-hydroxynonenal, 100 μM compound",only increase the catalytic activity of ALDH3A1 towards small aldehydes like acetaldehyde and propionaldehyde but not aromatic or long-chain aldehydes
same,Amax,"[3]; normalized to baseline activity, GraphPad Prism curve fit",~4.6
same,EC50,"[3]; recombinant ALDH3A1, spectrophotometric enzyme activity assay, concentrations 6 nM to 400 μM",~14 µM
